Data taken from PMC3026871 (Cancer chemotherapy and pharmacology, 2010).

Legend:
[1] = Plasma pharmacokinetics in patients; details: for concentration at 24 h / concentration at 6 h: Cmin; for concentration at 24 h: 24 hours after the daily dose; for concentration at 6 h: 6 hours after the second dose
[2] = ref Data on file, Millennium; cited from earlier work
[3] = human, plasma, oral, 5 mg, Mean (SD), QD-7D 5 mg, Day 7, steady state, n=4
[4] = human, plasma, oral, 10 mg, Mean (SD), QD-7D 10 mg, Day 7, steady state, n=4
[5] = human, plasma, oral, 20 mg, Mean (SD), QD-7D 20 mg, Day 7, steady state, n=3
[6] = human, plasma, oral, 25 mg, Mean (SD), QID-7D 25 mg, Day 7, Dose 2, steady state, n=6
[7] = human, plasma, oral, 30 mg, Mean (SD), QD-7D 30 mg, Day 7, steady state, n=6
[8] = human, plasma, oral, 35 mg, Mean (SD), QID-7D 35 mg, Day 7, Dose 2, steady state, n=3
[9] = human, plasma, oral, 40 mg, QD-7D 40 mg, Day 7, steady state, individual data, n=1
[10] = human, plasma, oral, 45 mg, Mean (SD), QID-7D 45 mg, Day 7, Dose 2, steady state, n=3
[11] = human, plasma, oral, 55 mg, Mean (SD), QID-7D 55 mg, Day 7, Dose 2, steady state, n=4
[12] = human, plasma, oral, 55 mg, Mean (SD), QID/M-7D 55 mg, Day 7, Dose 2, steady state, n=3
[13] = human, plasma, oral, 60 mg, Mean (SD), QID/M-7D 60 mg, Day 7, Dose 2, steady state, n=6
[14] = human, plasma, oral, 60 mg, Mean (SD), QID/M-14D 60 mg, Day 14, Dose 2, steady state, n=3
[15] = human, plasma, oral, 60 mg, QID/M-21D 60 mg, Day 21, Dose 2, steady state, individual data, n=1
[16] = human, plasma, oral, 70 mg, Mean (SD), QID/M-7D 70 mg, Day 7, Dose 2, steady state, n=3
[17] = human, plasma, oral, 80 mg, Mean (SD), QID/M-7D 80 mg, Day 7, Dose 2, steady state, n=3

O=C(O)c1ccc(Nc2ncc3c(n2)-c2ccc(Cl)cc2C(c2c(F)cccc2F)=NC3)cc1 [MLN8054]
concentration at 7 day ([1]; human, in vivo, 60 mg): ~2000 nM
concentration at 14 day ([1]; human, in vivo, 60 mg): > 2000 nM
AUC(0-t) ([1]; human, plasma, oral, 5 mg, AUC0–24, Mean (SD), QD-7D 5 mg, Day 7, steady state, n=4): 6.16 µM·h
Cmax [1, 3]: 521 nM
concentration at 24 h [1, 3]: 162 nM
Tmax ([1]; human, plasma, oral, 5 mg, Tmax, Mean (SD), QD-7D 5 mg, Day 7, steady state, n=4): 1.7 h
AUC(0-t) ([1]; human, plasma, oral, 10 mg, AUC0–24, Mean (SD), QD-7D 10 mg, Day 7, steady state, n=4): 7.53 µM·h
Cmax [1, 4]: 724 nM
concentration at 24 h [1, 4]: 154 nM
Tmax ([1]; human, plasma, oral, 10 mg, Tmax, Mean (SD), QD-7D 10 mg, Day 7, steady state, n=4): 3.8 h
AUC(0-t) ([1]; human, plasma, oral, 20 mg, AUC0–24, Mean (SD), QD-7D 20 mg, Day 7, steady state, n=3): 13.5 µM·h
Cmax [1, 5]: 1180 nM
concentration at 24 h [1, 5]: 240 nM
Tmax ([1]; human, plasma, oral, 20 mg, Tmax, Mean (SD), QD-7D 20 mg, Day 7, steady state, n=3): 3.3 h
AUC(0-t) ([1]; human, plasma, oral, 25 mg, AUC0–24, Mean (SD), QID-7D 25 mg, Day 7, Dose 2, steady state, n=6): 4.85 µM·h
Cmax [1, 6]: 1050 nM
concentration at 6 h [1, 6]: 720 nM
Tmax ([1]; human, plasma, oral, 25 mg, Tmax, Mean (SD), QID-7D 25 mg, Day 7, Dose 2, steady state, n=6): 2.5 h
AUC(0-t) ([1]; human, plasma, oral, 30 mg, AUC0–24, Mean (SD), QD-7D 30 mg, Day 7, steady state, n=6): 28.2 µM·h
Cmax [1, 7]: 2360 nM
concentration at 24 h [1, 7]: 912 nM
Tmax ([1]; human, plasma, oral, 30 mg, Tmax, Mean (SD), QD-7D 30 mg, Day 7, steady state, n=6): 3 h
AUC(0-t) ([1]; human, plasma, oral, 35 mg, AUC0–24, Mean (SD), QID-7D 35 mg, Day 7, Dose 2, steady state, n=3): 9.71 µM·h
Cmax [1, 8]: 1970 nM
concentration at 6 h [1, 8]: 1460 nM
Tmax ([1]; human, plasma, oral, 35 mg, Tmax, Mean (SD), QID-7D 35 mg, Day 7, Dose 2, steady state, n=3): 1.5 h
AUC(0-t) ([1]; human, plasma, oral, 40 mg, AUC0–24, QD-7D 40 mg, Day 7, steady state, individual data, n=1): 24.2 µM·h
Cmax [1, 9]: 3040 nM
concentration at 24 h [1, 9]: 461 nM
Tmax ([1]; human, plasma, oral, 40 mg, Tmax, QD-7D 40 mg, Day 7, steady state, individual data, n=1): 1 h
AUC(0-t) ([1]; human, plasma, oral, 45 mg, AUC0–24, Mean (SD), QID-7D 45 mg, Day 7, Dose 2, steady state, n=3): 7.55 µM·h
Cmax [1, 10]: 1530 nM
concentration at 6 h [1, 10]: 1140 nM
Tmax ([1]; human, plasma, oral, 45 mg, Tmax, Mean (SD), QID-7D 45 mg, Day 7, Dose 2, steady state, n=3): 0.8 h
AUC(0-t) ([1]; human, plasma, oral, 55 mg, AUC0–24, Mean (SD), QID-7D 55 mg, Day 7, Dose 2, steady state, n=4): 12.5 µM·h
AUC(0-t) ([1]; human, plasma, oral, 55 mg, AUC0–24, Mean (SD), QID/M-7D 55 mg, Day 7, Dose 2, steady state, n=3): 10.7 µM·h
Cmax [1, 11]: 2480 nM
Cmax [1, 12]: 2310 nM
concentration at 6 h [1, 11]: 1800 nM
concentration at 6 h [1, 12]: 1310 nM
Tmax ([1]; human, plasma, oral, 55 mg, Tmax, Mean (SD), QID-7D 55 mg, Day 7, Dose 2, steady state, n=4): 1.2 h
Tmax ([1]; human, plasma, oral, 55 mg, Tmax, Mean (SD), QID/M-7D 55 mg, Day 7, Dose 2, steady state, n=3): 1 h
AUC(0-t) ([1]; human, plasma, oral, 60 mg, AUC0–24, Mean (SD), QID/M-7D 60 mg, Day 7, Dose 2, steady state, n=6): 8.38 µM·h
AUC(0-t) ([1]; human, plasma, oral, 60 mg, AUC0–24, Mean (SD), QID/M-14D 60 mg, Day 14, Dose 2, steady state, n=3): 13.2 µM·h
AUC(0-t) ([1]; human, plasma, oral, 60 mg, AUC0–24, QID/M-21D 60 mg, Day 21, Dose 2, steady state, individual data, n=1): 7.03 µM·h
Cmax [1, 13]: 1950 nM
Cmax [1, 14]: 2640 nM
Cmax [1, 15]: 1500 nM
concentration at 6 h [1, 13]: 1090 nM
concentration at 6 h [1, 14]: 2070 nM
concentration at 6 h [1, 15]: 945 nM
Tmax ([1]; human, plasma, oral, 60 mg, Tmax, Mean (SD), QID/M-7D 60 mg, Day 7, Dose 2, steady state, n=6): 1.3 h
Tmax ([1]; human, plasma, oral, 60 mg, Tmax, Mean (SD), QID/M-14D 60 mg, Day 14, Dose 2, steady state, n=3): 2.3 h
Tmax ([1]; human, plasma, oral, 60 mg, Tmax, QID/M-21D 60 mg, Day 21, Dose 2, steady state, individual data, n=1): 1 h
AUC(0-t) ([1]; human, plasma, oral, 70 mg, AUC0–24, Mean (SD), QID/M-7D 70 mg, Day 7, Dose 2, steady state, n=3): 15.2 µM·h
Cmax [1, 16]: 3280 nM
concentration at 6 h [1, 16]: 1950 nM
Tmax ([1]; human, plasma, oral, 70 mg, Tmax, Mean (SD), QID/M-7D 70 mg, Day 7, Dose 2, steady state, n=3): 1.5 h
concentration at 7 days ([1]; human, plasma, oral, 70 mg, mean plasma MLN8054 concentration maintained over the course of treatment, QID/M-7D 70 mg cohort): 2000 nM
AUC(0-t) ([1]; human, plasma, oral, 80 mg, AUC0–24, Mean (SD), QID/M-7D 80 mg, Day 7, Dose 2, steady state, n=3): 10.1 µM·h
Cmax [1, 17]: 2130 nM
concentration at 6 h [1, 17]: 1670 nM
Tmax ([1]; human, plasma, oral, 80 mg, Tmax, Mean (SD), QID/M-7D 80 mg, Day 7, Dose 2, steady state, n=3): 1 h
half-life ([1]; human, plasma, po): 30 to 40 h
Tmax ([1]; human, plasma, po, Tmax (range across cohorts), patients, across cohorts): 1 to 4 h
patients with trough MLN8054 concentrations >2000 nM ([1]; of the 48 patients with sufficient data to estimate pharmacokinetic parameters): 7 patients
dose-limiting toxicities (DLTs) in preclinical toxicology studies [2]: myelosuppression and gastrointestinal toxicity
